In US9340590B2 (priority 2011, dated 2016):
Like-named read-outs stand apart in the source and are kept apart here. Positions of bridges follow the written chain, without caps; N, C: chain ends. Non-standard residues stand in square brackets, D forms with d. Residues, ends and D or L forms follow the SMILES beside them. 1Nal = N[C@@H](Cc1cccc2ccccc12)C(=O)O

Experiments:
Assay in all cases: cell-based
hNav1.7 = hNav1.7 (Homo sapiens, UniProt Q15858); assay type: cell-based
hNav1.5 = hNav1.5 (Homo sapiens, UniProt Q14524); conditions: IonWorks Quattro, read-out: IWQ Use Nav1.5
Sequence of hNav1.5 (Q14524 whole entry, looked up): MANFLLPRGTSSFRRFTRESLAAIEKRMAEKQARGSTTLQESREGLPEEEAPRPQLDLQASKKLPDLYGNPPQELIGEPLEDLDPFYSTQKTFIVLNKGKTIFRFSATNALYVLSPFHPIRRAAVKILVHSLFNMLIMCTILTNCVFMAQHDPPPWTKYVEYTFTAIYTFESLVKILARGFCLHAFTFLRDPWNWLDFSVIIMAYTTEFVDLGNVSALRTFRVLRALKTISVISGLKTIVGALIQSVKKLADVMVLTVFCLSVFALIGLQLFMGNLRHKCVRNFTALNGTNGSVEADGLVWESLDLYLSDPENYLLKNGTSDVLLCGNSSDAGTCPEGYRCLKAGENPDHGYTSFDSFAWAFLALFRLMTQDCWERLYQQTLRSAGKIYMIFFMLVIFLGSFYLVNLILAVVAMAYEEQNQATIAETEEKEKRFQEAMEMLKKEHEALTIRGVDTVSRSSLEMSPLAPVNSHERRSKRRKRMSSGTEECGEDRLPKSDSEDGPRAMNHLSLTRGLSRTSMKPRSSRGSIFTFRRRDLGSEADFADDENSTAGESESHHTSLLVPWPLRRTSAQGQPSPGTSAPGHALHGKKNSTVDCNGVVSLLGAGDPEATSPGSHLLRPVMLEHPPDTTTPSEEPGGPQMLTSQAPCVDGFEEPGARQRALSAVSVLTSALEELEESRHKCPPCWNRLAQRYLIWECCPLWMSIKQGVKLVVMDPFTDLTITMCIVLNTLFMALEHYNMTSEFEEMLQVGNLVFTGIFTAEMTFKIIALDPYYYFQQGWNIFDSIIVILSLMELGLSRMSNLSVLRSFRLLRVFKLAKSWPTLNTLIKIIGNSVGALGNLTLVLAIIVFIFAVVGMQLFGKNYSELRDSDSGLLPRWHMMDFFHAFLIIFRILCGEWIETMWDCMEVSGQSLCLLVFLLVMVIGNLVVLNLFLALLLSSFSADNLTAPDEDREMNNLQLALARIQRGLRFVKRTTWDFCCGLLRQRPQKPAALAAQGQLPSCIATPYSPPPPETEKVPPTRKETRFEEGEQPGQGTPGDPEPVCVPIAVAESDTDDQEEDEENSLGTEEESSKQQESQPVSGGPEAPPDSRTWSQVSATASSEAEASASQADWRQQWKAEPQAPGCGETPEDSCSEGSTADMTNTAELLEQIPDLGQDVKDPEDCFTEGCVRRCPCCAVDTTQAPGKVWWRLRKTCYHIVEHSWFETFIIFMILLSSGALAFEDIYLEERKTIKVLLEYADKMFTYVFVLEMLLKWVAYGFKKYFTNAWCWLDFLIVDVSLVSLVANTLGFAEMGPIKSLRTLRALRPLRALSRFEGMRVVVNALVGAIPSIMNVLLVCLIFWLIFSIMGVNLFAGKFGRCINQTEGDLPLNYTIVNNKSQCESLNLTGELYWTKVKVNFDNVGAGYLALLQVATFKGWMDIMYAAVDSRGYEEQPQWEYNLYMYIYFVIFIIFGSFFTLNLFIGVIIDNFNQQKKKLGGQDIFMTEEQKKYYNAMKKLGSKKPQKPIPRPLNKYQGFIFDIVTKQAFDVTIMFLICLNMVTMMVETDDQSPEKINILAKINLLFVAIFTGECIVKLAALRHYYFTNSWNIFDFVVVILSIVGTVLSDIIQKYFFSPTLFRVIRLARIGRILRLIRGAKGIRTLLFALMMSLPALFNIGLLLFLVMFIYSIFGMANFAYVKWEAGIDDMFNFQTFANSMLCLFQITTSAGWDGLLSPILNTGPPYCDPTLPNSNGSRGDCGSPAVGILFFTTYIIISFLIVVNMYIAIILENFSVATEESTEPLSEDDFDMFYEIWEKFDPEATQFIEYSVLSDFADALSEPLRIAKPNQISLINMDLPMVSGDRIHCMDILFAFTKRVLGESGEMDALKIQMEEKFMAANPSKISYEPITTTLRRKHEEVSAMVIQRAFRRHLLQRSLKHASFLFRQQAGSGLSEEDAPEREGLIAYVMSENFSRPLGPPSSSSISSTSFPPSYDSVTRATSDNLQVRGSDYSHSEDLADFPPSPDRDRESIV

hNav1.3 = hNav1.3 (Homo sapiens, UniProt Q9NY46); conditions: IonWorks Quattro, read-out: IWQ Use Nav1.3
Sequence of hNav1.3 (Q9NY46 whole entry, looked up): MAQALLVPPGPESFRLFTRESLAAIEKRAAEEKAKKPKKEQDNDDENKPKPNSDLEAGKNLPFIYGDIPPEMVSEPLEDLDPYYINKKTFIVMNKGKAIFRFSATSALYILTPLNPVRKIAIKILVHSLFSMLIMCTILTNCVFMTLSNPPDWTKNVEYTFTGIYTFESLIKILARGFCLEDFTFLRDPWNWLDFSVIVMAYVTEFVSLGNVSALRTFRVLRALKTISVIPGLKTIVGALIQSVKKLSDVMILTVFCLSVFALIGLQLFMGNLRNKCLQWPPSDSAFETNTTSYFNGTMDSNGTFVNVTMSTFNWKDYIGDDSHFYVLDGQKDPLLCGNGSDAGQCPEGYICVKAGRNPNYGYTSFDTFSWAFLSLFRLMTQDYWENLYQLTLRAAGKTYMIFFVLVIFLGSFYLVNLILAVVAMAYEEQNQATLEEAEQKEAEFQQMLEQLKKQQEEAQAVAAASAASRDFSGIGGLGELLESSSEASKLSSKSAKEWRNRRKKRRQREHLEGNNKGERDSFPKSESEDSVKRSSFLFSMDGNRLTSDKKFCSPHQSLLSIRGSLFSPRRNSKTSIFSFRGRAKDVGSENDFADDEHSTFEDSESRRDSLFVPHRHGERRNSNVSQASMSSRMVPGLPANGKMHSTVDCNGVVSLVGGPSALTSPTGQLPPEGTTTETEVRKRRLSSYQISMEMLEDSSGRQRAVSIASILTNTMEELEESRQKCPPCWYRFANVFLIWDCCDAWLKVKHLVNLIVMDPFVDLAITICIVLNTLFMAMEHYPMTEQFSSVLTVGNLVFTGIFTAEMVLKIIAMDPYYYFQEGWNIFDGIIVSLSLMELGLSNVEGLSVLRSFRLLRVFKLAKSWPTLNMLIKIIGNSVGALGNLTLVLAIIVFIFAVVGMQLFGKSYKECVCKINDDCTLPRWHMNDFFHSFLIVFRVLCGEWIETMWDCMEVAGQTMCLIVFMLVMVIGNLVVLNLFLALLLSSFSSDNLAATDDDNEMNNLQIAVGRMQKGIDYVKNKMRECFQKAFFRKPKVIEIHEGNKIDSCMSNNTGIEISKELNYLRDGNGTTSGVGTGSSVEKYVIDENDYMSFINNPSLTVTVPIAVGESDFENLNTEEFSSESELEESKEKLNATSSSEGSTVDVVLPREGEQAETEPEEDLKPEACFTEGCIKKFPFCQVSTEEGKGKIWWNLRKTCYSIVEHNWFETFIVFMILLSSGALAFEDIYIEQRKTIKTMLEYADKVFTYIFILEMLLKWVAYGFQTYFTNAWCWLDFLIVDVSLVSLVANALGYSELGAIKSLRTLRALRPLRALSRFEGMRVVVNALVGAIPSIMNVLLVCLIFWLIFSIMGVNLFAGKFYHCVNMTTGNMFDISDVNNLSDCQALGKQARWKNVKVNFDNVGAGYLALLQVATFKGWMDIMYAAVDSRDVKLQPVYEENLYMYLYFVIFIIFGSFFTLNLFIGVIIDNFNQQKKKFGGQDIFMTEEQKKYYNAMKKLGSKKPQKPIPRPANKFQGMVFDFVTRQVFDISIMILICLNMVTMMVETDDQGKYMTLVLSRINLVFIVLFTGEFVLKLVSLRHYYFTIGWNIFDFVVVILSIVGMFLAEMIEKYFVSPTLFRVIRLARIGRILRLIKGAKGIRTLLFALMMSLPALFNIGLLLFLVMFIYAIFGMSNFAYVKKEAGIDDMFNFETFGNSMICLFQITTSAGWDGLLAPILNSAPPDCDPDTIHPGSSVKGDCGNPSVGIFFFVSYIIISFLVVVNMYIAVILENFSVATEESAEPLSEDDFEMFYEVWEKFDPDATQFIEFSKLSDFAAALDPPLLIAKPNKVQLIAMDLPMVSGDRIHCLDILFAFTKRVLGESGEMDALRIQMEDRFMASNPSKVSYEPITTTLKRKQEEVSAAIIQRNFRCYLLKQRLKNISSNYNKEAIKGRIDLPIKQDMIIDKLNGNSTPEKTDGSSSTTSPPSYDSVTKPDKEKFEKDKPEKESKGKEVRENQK

[1] = Table 25, IonWorks Quattro, use, […], read-out: IWQ Use Nav1.7
[2] = IonWorks Quattro, use-dependent, […], read-out: IWQ Use Nav1.7

For `CC[C@H](C)[C@@H]1NC(=O)[C@@H]2CSSC[C@@H]3NC(=O)[C@H](C(C)C)NC(=O)[C@H](CC(C)C)NC(=O)[C@H](CC(N)=O)NC(=O)[C@@H]4CCCN4C(=O)[C@H](CCCNC(=N)N)NC(=O)[C@H](CSSC[C@H](NC(=O)[C@@H](N)CC(=O)O)C(=O)N[C@@H](CC(C)C)C(=O)NCC(=O)N[C@@H](Cc4ccccc4)C(=O)N[C@@H](CCSC)C(=O)N[C@@H](CCCNC(=N)N)C(=O)N[C@@H](CCCCN)C(=O)N2)NC(=O)[C@H](CSSC[C@@H](C(=O)N[C@@H](CCCNC(=N)N)C(=O)N[C@@H](Cc2ccc(O)cc2)C(=O)N[C@H](C(=O)N[C@@H](Cc2ccccc2)C(N)=O)C(C)C)NC(=O)[C@H](Cc2c[nH]c4ccccc24)NC(=O)[C@H](CCCCN)NC(=O)[C@H](Cc2cnc[nH]2)NC(=O)[C@H]([C@@H](C)O)NC(=O)[C@H](CCCNC(=N)N)NC(=O)[C@H](CO)NC3=O)NC(=O)[C@H](CCCCN)NC(=O)[C@H](CC(=O)O)NC(=O)[C@H](CC(N)=O)NC(=O)[C@H](CC(=O)O)NC(=O)[C@@H]2CCCN2C1=O` [compound 73] (H-DCLGFMRKCIPDNDKCCRPNLVCSRTHKWCRYVF-NH2; disulfide 2-17, 9-23, 16-30), the IC50 (hNav1.7; [1]) was 1.36 µM, the IC50 (hNav1.5; Table 25, use, […]) was 9.17 µM and the IC50 (hNav1.3; Table 25, use, […]) was 4.95 µM.

`CC[C@H](C)[C@@H]1NC(=O)[C@@H]2CSSC[C@@H]3NC(=O)[C@H](C(C)C)NC(=O)[C@H](CC(C)C)NC(=O)[C@H](CC(N)=O)NC(=O)[C@@H]4CCCN4C(=O)[C@H](CCCNC(=N)N)NC(=O)[C@H](CSSC[C@H](NC(=O)[C@@H](N)CC(=O)O)C(=O)N[C@@H](CC(C)C)C(=O)NCC(=O)N[C@@H](Cc4ccccc4)C(=O)N[C@@H](CCSC)C(=O)N[C@@H](CCCNC(=N)N)C(=O)N[C@@H](CCCCN)C(=O)N2)NC(=O)[C@H](CSSC[C@@H](C(=O)N[C@@H](CCCCN)C(=O)N[C@@H](Cc2ccc(O)cc2)C(=O)N[C@H](C(=O)N[C@@H](CCCNC(=N)N)C(N)=O)C(C)C)NC(=O)[C@H](Cc2c[nH]c4ccccc24)NC(=O)[C@H](CCCCN)NC(=O)[C@H](Cc2cnc[nH]2)NC(=O)[C@H]([C@@H](C)O)NC(=O)[C@H](CCCNC(=N)N)NC(=O)[C@H](CO)NC3=O)NC(=O)[C@H](CCCCN)NC(=O)[C@H](CC(=O)O)NC(=O)[C@H](CC(N)=O)NC(=O)[C@H](CC(=O)O)NC(=O)[C@@H]2CCCN2C1=O` [compound 75] (H-DCLGFMRKCIPDNDKCCRPNLVCSRTHKWCKYVR-NH2; disulfide 2-17, 9-23, 16-30) gave an IC50 (hNav1.7) of 3.58 µM, an IC50 (hNav1.5; use-dependent, […]) of 8.99 µM and an IC50 (hNav1.3; use-dependent, […]) of 4.69 µM.

Work on `CC[C@H](C)[C@@H]1NC(=O)[C@@H]2CSSC[C@@H]3NC(=O)[C@H](C(C)C)NC(=O)[C@H](CC(C)C)NC(=O)[C@H](CC(N)=O)NC(=O)[C@@H]4CCCN4C(=O)[C@H](CCCNC(=N)N)NC(=O)[C@H](CSSC[C@H](NC(=O)[C@@H](N)CC(=O)O)C(=O)N[C@@H](CC(C)C)C(=O)NCC(=O)N[C@@H](Cc4ccccc4)C(=O)N[C@@H](CCSC)C(=O)N[C@@H](CCCNC(=N)N)C(=O)N[C@@H](CCCCN)C(=O)N2)NC(=O)[C@H](CSSC[C@@H](C(=O)N[C@@H](CCCCN)C(=O)N[C@@H](Cc2ccc(O)cc2)C(=O)N[C@H](C(=O)N[C@@H](Cc2ccccc2)C(=O)N[C@@H](CCCNC(=N)N)C(N)=O)C(C)C)NC(=O)[C@H](Cc2c[nH]c4ccccc24)NC(=O)[C@H](CCCCN)NC(=O)[C@H](Cc2cnc[nH]2)NC(=O)[C@H]([C@@H](C)O)NC(=O)[C@H](CCCNC(=N)N)NC(=O)[C@H](CO)NC3=O)NC(=O)[C@H](CCCCN)NC(=O)[C@H](CC(=O)O)NC(=O)[C@H](CC(N)=O)NC(=O)[C@H](CC(=O)O)NC(=O)[C@@H]2CCCN2C1=O` [compound 76] yielded an IC50 (hNav1.7; IonWorks Quattro, use-dependent, […], read-out: IWQ Use Nav1.7 (μm)) of 0.3 µM, an IC50 (hNav1.5; use-dependent, […]) of 9.73 µM and an IC50 (hNav1.3; use-dependent, […]) of 0.1 µM.

Work on `CC[C@H](C)[C@@H]1NC(=O)[C@@H]2CSSC[C@@H]3NC(=O)[C@H](C(C)C)NC(=O)[C@H](CC(C)C)NC(=O)[C@H](CC(N)=O)NC(=O)[C@@H]4CCCN4C(=O)[C@H](CCCNC(=N)N)NC(=O)[C@H](CSSC[C@H](NC(=O)[C@@H](N)CC(=O)O)C(=O)N[C@@H](CC(C)C)C(=O)NCC(=O)N[C@@H](Cc4ccccc4)C(=O)N[C@@H](CCSC)C(=O)N[C@@H](CCCNC(=N)N)C(=O)N[C@@H](CCCCN)C(=O)N2)NC(=O)[C@H](CSSC[C@@H](C(=O)N[C@@H](CCCCN)C(=O)N[C@@H](Cc2ccc(O)cc2)C(=O)N[C@H](C(=O)N[C@@H](Cc2cccc4ccccc24)C(N)=O)C(C)C)NC(=O)[C@H](Cc2c[nH]c4ccccc24)NC(=O)[C@H](CCCCN)NC(=O)[C@H](Cc2cnc[nH]2)NC(=O)[C@H]([C@@H](C)O)NC(=O)[C@H](CCCNC(=N)N)NC(=O)[C@H](CO)NC3=O)NC(=O)[C@H](CCCCN)NC(=O)[C@H](CC(=O)O)NC(=O)[C@H](CC(N)=O)NC(=O)[C@H](CC(=O)O)NC(=O)[C@@H]2CCCN2C1=O` [compound 80] (H-DCLGFMRKCIPDNDKCCRPNLVCSRTHKWCKYV[1Nal]-NH2; disulfide 2-17, 9-23, 16-30) yielded an IC50 (hNav1.7; [2]) of 0.02 µM, an IC50 (hNav1.5; use-dependent, […]) of 10.2 µM and an IC50 (hNav1.3; use-dependent, […]) of 0.03 µM.

In the case of `CSCC[C@@H]1NC(=O)[C@H](Cc2ccccc2)NC(=O)CNC(=O)[C@H](CC(C)C)NC(=O)[C@@H](NC(=O)[C@@H](N)CC(=O)O)CSSC[C@@H]2NC(=O)[C@@H]3CSSC[C@@H](C(=O)N[C@@H](CCCCN)C(=O)N[C@@H](Cc4ccc(O)cc4)C(=O)N[C@H](C(=O)N[C@@H](Cc4ccccc4)C(N)=O)C(C)C)NC(=O)[C@H](Cc4c[nH]c5ccccc45)NC(=O)[C@H](CCCCN)NC(=O)[C@H](Cc4c[nH]cn4)NC(=O)[C@H]([C@@H](C)O)NC(=O)[C@H](CCCNC(=N)N)NC(=O)[C@H](CO)NC(=O)[C@H](CSSC[C@H](NC(=O)[C@H](CCCCN)NC(=O)[C@H](CCCNC(=N)N)NC1=O)C(=O)N[C@@H](Cc1c[nH]c4ccccc14)C(=O)N1CCC[C@H]1C(=O)N[C@@H](CC(=O)O)C(=O)N[C@@H](CC(N)=O)C(=O)N[C@@H](CC(=O)O)C(=O)N[C@@H](CCCCN)C(=O)N3)NC(=O)[C@H](C(C)C)NC(=O)[C@H](CC(C)C)NC(=O)[C@H](CC(N)=O)NC(=O)[C@@H]1CCCN1C(=O)[C@H](CCCNC(=N)N)NC2=O` [compound 83] (H-DCLGFMRKCWPDNDKCCRPNLVCSRTHKWCKYVF-NH2; disulfide 2-17, 9-23, 16-30), the IC50 (hNav1.7; IonWorks Quattro, Use, read-out: IWQ Use Nav1.7) is reported as 0.1 µM, the IC50 (hNav1.5; Use) is reported as 8.02 µM and the IC50 (hNav1.3; Use) is reported as 0.19 µM.

Compound `CC[C@H](C)[C@@H]1NC(=O)[C@@H]2CSSC[C@@H]3NC(=O)[C@H](C(C)C)NC(=O)[C@H](CC(C)C)NC(=O)[C@H](CC(N)=O)NC(=O)[C@@H]4CCCN4C(=O)[C@H](CCCNC(=N)N)NC(=O)[C@H](CSSC[C@H](NC(=O)[C@@H](N)CC(=O)O)C(=O)N[C@@H](CC(C)C)C(=O)NCC(=O)N[C@@H](Cc4ccccc4)C(=O)N[C@@H](CCSC)C(=O)N[C@@H](CCCNC(=N)N)C(=O)N[C@@H](CCCCN)C(=O)N2)NC(=O)[C@H](CSSC[C@@H](C(=O)N[C@@H](CCCCN)C(=O)N[C@@H](Cc2c[nH]c4ccccc24)C(=O)N[C@H](C(=O)N[C@@H](Cc2ccccc2)C(N)=O)C(C)C)NC(=O)[C@H](Cc2c[nH]c4ccccc24)NC(=O)[C@H](CCCCN)NC(=O)[C@H](Cc2c[nH]cn2)NC(=O)[C@H]([C@@H](C)O)NC(=O)[C@H](CCCNC(=N)N)NC(=O)[C@H](CO)NC3=O)NC(=O)[C@H](CCCCN)NC(=O)[C@H](CC(=O)O)NC(=O)[C@H](CC(N)=O)NC(=O)[C@H](CC(=O)O)NC(=O)[C@@H]2CCCN2C1=O` [compound 85] (H-DCLGFMRKCIPDNDKCCRPNLVCSRTHKWCKWVF-NH2; disulfide 2-17, 9-23, 16-30) has an IC50 (hNav1.7; [1]) of 0.09 µM, an IC50 (hNav1.5; Table 25, use, […]) of 6.74 µM and an IC50 (hNav1.3; Table 25, use, […]) of 0.16 µM.

With `CC[C@H](C)[C@@H]1NC(=O)[C@@H]2CSSC[C@@H]3NC(=O)[C@H](C(C)C)NC(=O)[C@H](CC(C)C)NC(=O)[C@H](CC(N)=O)NC(=O)[C@@H]4CCCN4C(=O)[C@H](CCCNC(=N)N)NC(=O)[C@H](CSSC[C@H](NC(=O)[C@@H](N)CC(=O)O)C(=O)N[C@@H](CC(C)C)C(=O)NCC(=O)N[C@@H](Cc4ccccc4)C(=O)N[C@@H](CCSC)C(=O)N[C@@H](CCCNC(=N)N)C(=O)N[C@@H](CCCCN)C(=O)N2)NC(=O)[C@H](CSSC[C@@H](C(=O)N[C@@H](CCCCN)C(=O)N[C@@H](Cc2ccc(O)cc2)C(=O)N[C@H](C(=O)N[C@@H](Cc2c[nH]c4ccccc24)C(N)=O)C(C)C)NC(=O)[C@H](Cc2c[nH]c4ccccc24)NC(=O)[C@H](CCCCN)NC(=O)[C@H](Cc2c[nH]cn2)NC(=O)[C@H]([C@@H](C)O)NC(=O)[C@H](CCCNC(=N)N)NC(=O)[C@H](CO)NC3=O)NC(=O)[C@H](CCCCN)NC(=O)[C@H](CC(=O)O)NC(=O)[C@H](CC(N)=O)NC(=O)[C@H](CC(=O)O)NC(=O)[C@@H]2CCCN2C1=O` [compound 86] (H-DCLGFMRKCIPDNDKCCRPNLVCSRTHKWCKYVW-NH2; disulfide 2-17, 9-23, 16-30) the IC50 (hNav1.7; [2]) was 0.26 µM, the IC50 (hNav1.5; use-dependent, […]) was 10 µM and the IC50 (hNav1.3; use-dependent, […]) was 0.18 µM.
